The values that follow are results of earlier work, collected in US20100055044A1, “Ruthenium compounds and compositions” (priority 2008, published 2010).

Molecules are shown by their SMILES. Where two headings read alike, the source gives them in different places.

The test system of the data set is Alveolar adenocarcinoma, breast adenocarcinoma, uterine carcinosarcoma, and endometrial carcinoma cells. Particulars: 8 days.

On to `O=[O+][O-]` [ozone], for which the cell growth inhibition runs as follows: (0.3 ppm ozone in air) 40%; (0.5 ppm ozone in air) 60%; (0.8 ppm ozone in air, cancerous cells) 90%.
